Measured values: PMC6829864, “Determination of Ligand Profiles for Pseudomonas aeruginosa Solute Binding Proteins” (International Journal of Molecular Sciences, 2019)
“Also recorded” adds a separate entry of the source. One block for each molecule: values may come before it.

Experiments:
[1] = target: T1, PA2338 (Pseudomonas aeruginosa, UniProt Q9I1E0); assay: Isothermal titration calorimetry, PA2338; assay type: binding, Pseudomonas aeruginosa PAO1; details: 25 °C
[2] = target: T2, PA0222 (Pseudomonas aeruginosa, UniProt Q9I6R6); assay type: binding; details: Tm change vs ligand-free protein
T2 sequence (Q9I6R6 29-352): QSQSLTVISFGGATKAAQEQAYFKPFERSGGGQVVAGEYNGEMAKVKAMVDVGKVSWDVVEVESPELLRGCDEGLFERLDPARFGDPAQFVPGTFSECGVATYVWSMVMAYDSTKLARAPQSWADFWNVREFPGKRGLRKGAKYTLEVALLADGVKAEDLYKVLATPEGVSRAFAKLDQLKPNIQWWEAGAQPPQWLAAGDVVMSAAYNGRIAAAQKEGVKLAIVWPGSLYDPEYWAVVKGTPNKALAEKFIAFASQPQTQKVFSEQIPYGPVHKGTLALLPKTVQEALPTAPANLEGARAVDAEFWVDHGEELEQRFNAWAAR

[3] = target: T2, PA0222; assay: Isothermal titration calorimetry, PA0222; assay type: binding, Pseudomonas aeruginosa PAO1; details: 25 °C
[4] = target: T3, PA3889 (opuCC) (Pseudomonas aeruginosa, UniProt Q9HXC4); assay: DSF thermal shift ligand screening, PA3889; assay type: binding, Pseudomonas aeruginosa PAO1; details: Tm change vs ligand-free protein
[5] = target: T3, PA3889 (opuCC); assay: Isothermal titration calorimetry, PA3889; assay type: binding, Pseudomonas aeruginosa PAO1; details: 25 °C
[6] = test system: Pseudomonas aeruginosa PAO1; assay type: cell-based; details: chemoeffector 1 mM, except molybdate 0.1 mM
[7] = target: T4, PA2592 (Pseudomonas aeruginosa, UniProt Q9I0P5); assay: DSF thermal shift ligand screening, PA2592; assay type: binding, Pseudomonas aeruginosa PAO1; details: arrays PM2A, PM3B, PM5
T4 sequence (Q9I0P5 20-367): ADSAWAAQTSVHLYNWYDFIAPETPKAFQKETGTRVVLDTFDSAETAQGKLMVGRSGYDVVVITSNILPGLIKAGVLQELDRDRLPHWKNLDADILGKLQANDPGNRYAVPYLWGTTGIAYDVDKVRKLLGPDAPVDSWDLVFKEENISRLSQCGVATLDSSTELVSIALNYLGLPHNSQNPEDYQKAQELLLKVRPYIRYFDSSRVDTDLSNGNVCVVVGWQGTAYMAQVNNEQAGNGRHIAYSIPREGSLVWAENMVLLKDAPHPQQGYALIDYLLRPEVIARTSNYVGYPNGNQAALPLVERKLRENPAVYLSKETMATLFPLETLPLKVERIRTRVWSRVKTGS

[8] = target: T4, PA2592; assay: biochemical; assay type: binding
[9] = target: T5, PA3610 (potD) (Pseudomonas aeruginosa, UniProt Q9HY16); assay: Isothermal titration calorimetry, PA3610; assay type: binding, Pseudomonas aeruginosa PAO1; details: 25 °C
[10] = target: T6, PA1342 (aatJ) (Pseudomonas aeruginosa, UniProt Q9I402); assay type: binding; details: 25 °C
T6 sequence (Q9I402 24-302): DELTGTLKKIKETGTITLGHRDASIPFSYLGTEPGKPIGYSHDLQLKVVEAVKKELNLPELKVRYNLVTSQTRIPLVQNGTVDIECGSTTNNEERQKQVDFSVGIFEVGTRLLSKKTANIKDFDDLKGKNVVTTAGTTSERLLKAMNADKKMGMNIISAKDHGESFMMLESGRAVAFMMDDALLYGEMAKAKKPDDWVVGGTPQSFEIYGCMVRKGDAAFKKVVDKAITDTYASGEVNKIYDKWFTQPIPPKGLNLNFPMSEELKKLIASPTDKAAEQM

[11] = target: T6, PA1342 (aatJ); assay: DSF thermal shift ligand screening, PA1342; assay type: binding, Pseudomonas aeruginosa PAO1; details: Tm change vs ligand-free protein
[12] = target: T7, PA1074 (braC) (Pseudomonas aeruginosa, UniProt P21175); assay type: binding, Pseudomonas aeruginosa PAO1; details: Tm change vs ligand-free protein
[13] = target: T7, PA1074 (braC); assay: biochemical; assay type: binding, Pseudomonas aeruginosa PAO1
[14] = target: T1, PA2338; assay: DSF thermal shift ligand screening, PA2338; assay type: binding, Pseudomonas aeruginosa PAO1; details: Tm change vs ligand-free protein
[15] = target: T5, PA3610 (potD); assay: DSF thermal shift ligand screening, PA3610; assay type: binding, Pseudomonas aeruginosa PAO1; details: Tm change vs ligand-free protein
[16] = test system: PA0283 (sbp); assay: DSF thermal shift ligand screening, PA0283; assay type: binding, Pseudomonas aeruginosa PAO1; details: Tm change vs ligand-free protein
[17] = target: PA0283 (sbp); assay: Isothermal titration calorimetry, PA0283; assay type: binding, Pseudomonas aeruginosa PAO1; details: 25 °C
[18] = target: T8, PA1493 (cysP) (Pseudomonas aeruginosa, UniProt Q9I3L9); assay: biochemical; assay type: binding, Pseudomonas aeruginosa PAO1
[19] = target: T8, PA1493 (cysP); details: Tm change vs ligand-free protein
[20] = test system: PA4687 (hitA); assay type: binding, Pseudomonas aeruginosa PAO1
[21] = test system: PA4687 (hitA); details: Tm change vs ligand-free protein

T5 sequence (Q9HY16 21-354): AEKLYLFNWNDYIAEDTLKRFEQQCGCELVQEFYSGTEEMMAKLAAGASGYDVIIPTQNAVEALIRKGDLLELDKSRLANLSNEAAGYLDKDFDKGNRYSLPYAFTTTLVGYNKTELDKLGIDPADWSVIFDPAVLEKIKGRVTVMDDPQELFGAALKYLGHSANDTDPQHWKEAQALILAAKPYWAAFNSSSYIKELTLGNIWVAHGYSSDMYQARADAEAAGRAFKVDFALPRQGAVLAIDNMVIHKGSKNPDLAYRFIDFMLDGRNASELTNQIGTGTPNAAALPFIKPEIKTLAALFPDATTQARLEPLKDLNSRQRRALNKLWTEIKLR
T3 sequence (Q9HXC4 24-311): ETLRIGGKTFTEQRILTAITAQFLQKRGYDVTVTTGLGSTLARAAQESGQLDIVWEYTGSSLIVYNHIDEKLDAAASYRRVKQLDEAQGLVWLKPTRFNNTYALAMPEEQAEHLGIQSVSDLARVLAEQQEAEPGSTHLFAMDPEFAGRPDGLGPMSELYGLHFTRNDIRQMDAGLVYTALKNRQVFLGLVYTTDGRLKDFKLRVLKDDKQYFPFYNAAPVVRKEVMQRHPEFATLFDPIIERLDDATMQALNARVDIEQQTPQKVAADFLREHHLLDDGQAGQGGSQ
T1 sequence (Q9I1E0 23-436): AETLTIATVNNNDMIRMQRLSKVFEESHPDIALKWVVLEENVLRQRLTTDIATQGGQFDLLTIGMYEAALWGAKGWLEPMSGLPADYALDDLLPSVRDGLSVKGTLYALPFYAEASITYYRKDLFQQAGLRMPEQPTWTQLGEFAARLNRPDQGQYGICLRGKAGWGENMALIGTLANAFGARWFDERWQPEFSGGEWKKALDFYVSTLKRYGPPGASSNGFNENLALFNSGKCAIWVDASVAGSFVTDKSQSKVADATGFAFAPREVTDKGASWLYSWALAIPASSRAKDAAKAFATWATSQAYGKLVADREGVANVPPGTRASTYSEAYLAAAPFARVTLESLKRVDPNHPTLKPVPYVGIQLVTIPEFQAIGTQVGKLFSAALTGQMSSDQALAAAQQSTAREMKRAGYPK
T7 sequence (P21175 27-373): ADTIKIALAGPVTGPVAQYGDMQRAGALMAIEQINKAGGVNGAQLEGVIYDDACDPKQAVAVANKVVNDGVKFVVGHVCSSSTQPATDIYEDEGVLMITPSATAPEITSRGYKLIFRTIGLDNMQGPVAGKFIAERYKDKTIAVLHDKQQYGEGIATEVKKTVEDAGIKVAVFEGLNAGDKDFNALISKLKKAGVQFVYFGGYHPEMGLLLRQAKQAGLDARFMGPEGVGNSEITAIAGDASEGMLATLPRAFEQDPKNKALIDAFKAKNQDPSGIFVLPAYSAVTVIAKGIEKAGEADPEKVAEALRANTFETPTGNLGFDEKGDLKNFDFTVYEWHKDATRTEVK
T8 sequence (Q9I3L9 23-332): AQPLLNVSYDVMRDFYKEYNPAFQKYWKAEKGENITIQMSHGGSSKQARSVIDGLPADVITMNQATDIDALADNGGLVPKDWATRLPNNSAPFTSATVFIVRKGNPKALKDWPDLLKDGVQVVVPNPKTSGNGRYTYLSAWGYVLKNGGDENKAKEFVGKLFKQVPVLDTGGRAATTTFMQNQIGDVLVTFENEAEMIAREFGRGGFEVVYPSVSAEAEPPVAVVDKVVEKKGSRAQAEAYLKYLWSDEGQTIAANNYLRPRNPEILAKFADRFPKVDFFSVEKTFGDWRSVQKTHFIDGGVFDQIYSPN

Molecule: OC[C@H]1O[C@H](O[C@H]2[C@H](O)[C@@H](O)C(O)O[C@@H]2CO)[C@H](O)[C@@H](O)[C@@H]1O (mixture of isomers) [Maltose]
No Binding Observed by ITC [1]: absence of maltose binding

Molecule: CC(N)CCC(=O)O (stereo not drawn) [4-aminovalerate, 4-aminovaleric acid]
Tm DSF (Tm increase) [2]: 2.2 °C
KD by ITC [3]: No binding
No Binding Observed by ITC [3]: failed to bind

Molecule: NCCCC(=O)O [GABA, γ-amino-butyric acid]
Tm DSF (Tm increase) [2]: 9.6 °C

Molecule: C[N+](C)(C)CC(=O)O [Glycine-betaine]
Tm DSF (Tm increase) [4]: 3.2 °C
Kd ([5]; read-out: KD by ITC): 3000 ± 400 nM
Chemotaxis response in words [6]: very strong taxis

Molecule: NCCc1c[nH]cn1 [Histamine]
No Binding Observed by ITC [3]: failed to bind; also recorded: no measurable affinity
Tm DSF (Tm increase) [7]: 3.9 °C
KD by ITC ([8]; PA2592, 25 °C): No binding
No Binding Observed by ITC ([8]; PA2592, 25 °C): no binding
No Binding Observed by ITC [9]: did not reveal any binding

No Binding Observed by ITC [10]: No binding was observed
Molecule: NC(=O)C[C@H](N)C(=O)O [L-Asn]

Molecule: N[C@@H](CC(=O)O)C(=O)O [L-Asp]
Tm DSF (Tm increase) [11]: 10.9 °C

No Binding Observed by ITC [10]: No binding was observed
Molecule: NC(=O)CC[C@H](N)C(=O)O [L-Gln]

Molecule: CC(C)C[C@H](N)C(=O)O [L-Leu]
Tm DSF (Tm increase) [12]: 4.0 12.1 10.1 10.2 3.0 3.5 5.0 3.8 4.2 °C
Kd [13]: 290 nM

Molecule: C[N+](C)(C)C[C@H](O)CC(=O)[O-] [L-carnitine]
Tm DSF (Tm increase) [4]: 2.8 °C
KD by ITC [5]: No binding
No Binding Observed by ITC [5]: no binding heats were observed
Chemotaxis ([6]; capillary assay, 30 min): Yes Yes (Positive chemotaxis was considered when the number of bacterial cells per capillary was superior to 5000.)
Chemotaxis response in words [6]: very strong taxis

Molecule: OC[C@@H](O)[C@@H](O)[C@H](O)[C@H](O)CO [Mannitol]
Tm DSF (Tm increase) [14]: 4.1 °C
Kd ([1]; read-out: KD by ITC): 830 ± 200 nM

Molecule: NCCCCN [Putrescine]
No Binding Observed by ITC [3]: no measurable affinity
Tm DSF (Tm increase) [7]: 4.4 °C
Kd [8]: 31000 ± 4000 nM
Tm DSF (Tm increase) [15]: 13 n. d.^2 °C
Tm DSF (Tm increase) ([15]; listed as putrescine): 13 °C
Kd ([9]; read-out: KD by ITC (converted)): 4800 ± 400 nM

Molecule: NCCCCNCCCN [Spermidine]
No Binding Observed by ITC [3]: failed to bind; also recorded: no measurable affinity
No Binding Observed by ITC ([8]; PA2592, 25 °C): no binding
Tm DSF (Tm increase) [15]: did not stabilize the protein
No Binding Observed by ITC [9]: did not reveal any binding

Molecule: O=S(O)(O)=S [Thiosulphate]
Tm DSF (Tm increase) [16]: 2.1 °C
KD by ITC [17]: No binding No binding
Kd [18]: 290 ± 200 nM
Chemotaxis response in words [6]: moderate taxis
Tm DSF (Tm increase) [19]: 7.4 °C

Molecule: Iron(III) citrate
No Binding Observed by ITC [20]: did not show any binding
Tm DSF (Tm increase) [21]: no significant increases in Tm
